Test results published in patent publication US20090081636A1, “Pharmaceutical compositions for and methods of inhibiting HCV replication” (priority 2005, published 2009).
“Also recorded” adds a separate entry of the source.

Assays:
synthetic NS4A [1] = target: T1, synthetic NS4A (Hepatitis C virus genotype 1b, UniProt Q9WMX2); test: Competition assay for NS4A binding against [3H] labeled azidoacylthiourea; parameters: species or system HCV
T1 construct: The full length of NS4A (54 amino acids) is synthesized; made in house
Method: (§1) To determine whether acylthiourea compounds bind to NS4A, a photo-affinity labeling is carried out, in which an [^3H] labeled photo-reactive azidoacylthiourea, 1-(5-Azido-benzofuran-2-carbonyl)-3-(4-pentyloxy-3-trifluoromethyl-phenyl)-thiourea, is mixed with synthetic NS4A at various molar ratios. The mixture is incubated at 31° C. for one hour. Samples are then illuminated by a UV lamp (254 nm wavelength) at room temperature for 7 minutes. After denaturing with equal volume of Laemmli buffer containing 5% mercaptoethanol at 99° C. for 5 minutes, samples are separated on a 10-20% SDS-PAGE. After electrophoresis, the gel is fixed with 30% methanol-10% acetic acid overnight. Then the gel is treated with 3H enhancer solution (PerkinElmer) at room temperature for one hour, and subsequently with water for 30 minutes, and dried under vacuum.
To study the binding specificity of [^3H] labeled 1-(5-Azido-benzofuran-2-carbonyl)-3-(4-pentyloxy-3-trifluoromethyl-phenyl)-thiourea to synthetic NS4A, several structurally related compounds are used in the following competition assays. Non-labeled 1-(5-Azido-benzofuran-2-carbonyl)-3-(4-pentyloxy-3-trifluoromethyl-phenyl)-thiourea shares the same structure with [^3H] labeled 1-(5-Azido-benzofuran-2-carbonyl)-3-(4-pentyloxy-3-trifluoromethyl-phenyl)-thiourea. 1-(5-Azido-benzofuran-2-carbonyl)-3-(4-pentyloxy-3-trifluoromethyl-phenyl)-urea differs in structure from 1-(5-Azido-benzofuran-2-carbonyl)-3-(4-pentyloxy-3-trifluoromethyl-phenyl)-thiourea in that 1-(5-Azido-benzofuran-2-carbonyl)-3-(4-pentyloxy-3-trifluoromethyl-phenyl)-urea has a carbonyl group where 1-(5-Azido-benzofuran-2-carbonyl)-3-(4-pentyloxy-3-trifluoromethyl-phenyl)-thiourea has a thiocarbonyl group. […]

HCV replicon cells = test: HCV replicon assay; assay type: cell-based
Method: Cells expressing the HCV replicon are seeded onto the internal wells of 96-well plates at a density of 7,000 cells per well. One day later, different dilutions of the test compounds are added to corresponding wells and the plates are incubated in a CO2 incubator for 72 hours. After treatment, the cells are lysed with 70 μl RLN buffer per well (50 mM Tris-HCl [pH8.0], 140 mM NaCl, 1.5 mM MgCl2, 0.5% Nonidet P-40, 1,000 units/mL RNAsin and 1 mM […]). The total lysate is transferred to a new U bottom 96-well plate and nuclei and cell debris are pelleted with a brief spin (300×g for 3 minutes). 50 μl of supernatant is removed from the well and loaded directly onto manifold wells equipped with Nylon membranes. HCV RNA is hybridized at 58° C. overnight using a labeled HCV RNA probe containing a negative strand sequence complement to the NS5B region. Hybridization buffer is composed of 50% formamide, 5×SSPE, 1% SDS, 5×Denhart's solution, and sheared denatured salmon sperm DNA. Following hybridization, the membrane is washed with washing buffer (0.1×SSC, 0.1% SDS) at room temperature for two hours, then at 65° C. for 30 minutes. The radioactivity in each well is counted on a Microbeta counter and EC50 is calculated based on cpm.
Alternatively, HCV replicon cells are trypsinized for 5-10 minutes in a CO2 incubator. Then, cells are placed in a 15 mL tube, and are spun at 1000 rpm for 4 minutes and trypsin solution is removed. Cell pellets are washed once with PBS and spun 4 minutes at 1000 rpm.
Trypsinization and wash steps, supra, are conducted efficiently to minimize cell death. PBS is removed and cells are resuspended in 4 mL fresh PBS and cells are seeded at a dilution of 5000 cells per well to 96 well plates. Test compounds are diluted in 96 well U bottom plates with DMEM (high glucose) (BRL, Catalog #21063) supplemented with 10% FBS, L-glutamine, and non-essential amino acid. 100 uL of test compound is loaded into each well. […]
100 uL of development solution (TMB one-step substrate system) is added and plates are developed in the dark for 10 to 30 minutes. […] OD450 is measured.

NS3 protease domain = NS3 protease domain (Hepatitis C virus genotype 1b, UniProt Q9WMX2); test: Photo-affinity labeling binding assay, NS3 protease domain; parameters: species or system HCV; conditions: 3.3 μM protein
Method: as §1
(§2) One band corresponds to NS4A monomer, which is also detectable with Coomassie blue staining (FIG. 3). […] Without being bound by any particular theory, it is believed that this band may be composed largely of polymer form or aggregates of NS4A. At the same time, full-length NS3 and NS3 protease domain is included in this binding assay.

full-length NS3 = full-length NS3 (Hepatitis C virus genotype 1b, UniProt Q9WMX2); test: Photo-affinity labeling binding assay, full-length NS3; parameters: species or system HCV; conditions: 3.3 μM protein
Method: as §1, §2

synthetic NS4A [2] = target: T1, synthetic NS4A; test: Photo-affinity labeling of synthetic NS4A; assay type: binding, HCV; conditions: [3H] labeled compound, UV 254 nm photolysis, SDS-PAGE
Method: Experiments are undertaken to investigate the affinity and binding specificity of acylthiourea compounds to NS4A. The full length of NS4A (54 amino acids) is synthesized, and characterized with mass spectral analysis and HPLC profiling. An NS4A sample is then dissolved in 100% dimethylsulphoxide (DMSO) at a concentration of 2 μg/μl, and subjected to a 10-20% SDS-PAGE with a reducing reagent. A 6 kDa protein band, consistent with the size of NS4A, is detected in the gel following a Coomassie blue staining. The NS4A identity of this band is further confirmed by a Western blot with monoclonal anti-NS4A antibody.
as §1, with “Then the gel is treated with 3H enhancer solution (PerkinElmer) at room temperature for one hour, and subsequently with water for 30 minutes, and dried under vacuum.” left out

T1 sequence (Q9WMX2 1658-1711): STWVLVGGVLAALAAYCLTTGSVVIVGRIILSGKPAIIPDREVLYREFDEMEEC
Chain of full-length NS3 (Q9WMX2 1027-1657): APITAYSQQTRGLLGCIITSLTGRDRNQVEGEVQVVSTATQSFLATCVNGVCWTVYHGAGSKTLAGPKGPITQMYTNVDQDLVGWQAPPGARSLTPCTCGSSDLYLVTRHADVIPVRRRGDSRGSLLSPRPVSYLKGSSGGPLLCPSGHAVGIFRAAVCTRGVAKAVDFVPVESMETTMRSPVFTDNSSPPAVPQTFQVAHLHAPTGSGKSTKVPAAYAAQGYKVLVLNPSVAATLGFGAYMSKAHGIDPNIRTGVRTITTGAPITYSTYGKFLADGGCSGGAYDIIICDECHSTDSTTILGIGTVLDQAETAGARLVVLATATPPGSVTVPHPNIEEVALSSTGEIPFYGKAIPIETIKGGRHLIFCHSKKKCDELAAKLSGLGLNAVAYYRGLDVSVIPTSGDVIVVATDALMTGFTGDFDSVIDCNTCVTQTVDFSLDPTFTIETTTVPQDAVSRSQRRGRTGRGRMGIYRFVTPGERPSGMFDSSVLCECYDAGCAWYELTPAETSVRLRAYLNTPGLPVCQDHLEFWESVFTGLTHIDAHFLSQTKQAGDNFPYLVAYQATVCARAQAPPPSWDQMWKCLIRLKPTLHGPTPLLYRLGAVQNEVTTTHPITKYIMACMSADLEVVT
Chain of NS3 protease domain (Q9WMX2 1027-1208): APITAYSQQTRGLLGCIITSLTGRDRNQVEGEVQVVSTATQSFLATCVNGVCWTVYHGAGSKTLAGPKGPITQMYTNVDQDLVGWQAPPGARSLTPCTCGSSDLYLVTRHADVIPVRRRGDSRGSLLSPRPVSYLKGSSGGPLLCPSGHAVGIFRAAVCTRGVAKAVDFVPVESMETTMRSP

Compound: CCCCCOc1ccc(NC(=S)NC(=O)c2cccnc2)cc1C(F)(F)F [1-(4-Pentyloxy-3-trifluoromethyl-phenyl)-3-(pyridine-3-carbonyl)-thiourea]
- competition with [3H] labeled azidoacylthiourea for NS4A binding (synthetic NS4A [1]): effectively compete
- anti-HCV activity in replicon cells (HCV replicon cells): exhibit anti-HCV activities

Compound: CCCCCOc1ccc(NC(=S)NC(=O)c2cc3ccccc3o2)cc1C(F)(F)F [1-(Benzofuran-2-carbonyl)-3-(4-pentyloxy-3-trifluoromethyl-phenyl)-thiourea]
- competition with [3H] labeled azidoacylthiourea for NS4A binding (synthetic NS4A [1]): effectively compete
- anti-HCV activity in replicon cells (HCV replicon cells): exhibit anti-HCV activities

Compound: CCCCCOc1ccc(NC(=O)NC(=O)c2cc3cc(N=[N+]=[N-])ccc3o2)cc1C(F)(F)F [1-(5-Azido-benzofuran-2-carbonyl)-3-(4-pentyloxy-3-trifluoromethyl-phenyl)-urea]
- competition with [3H] labeled azidoacylthiourea for NS4A binding (synthetic NS4A [1]): does not compete; also recorded: abolish this competition capacity
- anti-HCV activity in replicon cells (HCV replicon cells): does not exhibit any anti-HCV activity

Compound: CCCCCOc1ccc(NC(=S)NC(=O)c2cc3cc(N=[N+]=[N-])ccc3o2)cc1C(F)(F)F [1-(5-Azido-benzofuran-2-carbonyl)-3-(4-pentyloxy-3-trifluoromethyl-phenyl)-thiourea]
- binding to NS3 protease domain (NS3 protease domain): weak binding signals
- binding to full-length NS3 (full-length NS3): weak binding signals
- binding to synthetic NS4A (synthetic NS4A [2]): binds to synthetic NS4A; also recorded: two radioactive bands
